Test systems include ACHN renal; UACC-62 melanoma; MALME-3M melanoma; KM12 colon; A549 NSCLC; HCT-15 colon; TK-10 renal; NCI-H460 lung; SNB-75 CNS; RXF 393 renal.
Experiment in all cases: NCI-60 cell line screen, 48 h

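Values below derive from 48-hour exposures of cells grown in 96-well plates, with endpoints linearly interpolated between the two concentrations bracketing the appropriate inhibition level. At the GI50, growth is halved. TGI: concentration producing complete growth inhibition.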 A value given as a limit tells only on which side of the number the result lay.

In the case of `NC(=O)CCC(NC(=O)OCc1ccccc1)C(=O)OCC(=O)c1ccccc1` (stereo not given), the GI50 in the experiment with ACHN renal, with UACC-62 melanoma, in the experiment with MALME-3M melanoma, in the experiment with KM12 colon, in the experiment on A549 NSCLC and with HCT-15 colon was above 100 µM throughout. Further, the GI50 in the experiment on TK-10 renal, with NCI-H460 lung, with SNB-75 CNS and in the experiment on RXF 393 renal was above 100 µM in each case. The TGI with ACHN renal, in the experiment on UACC-62 melanoma, in the experiment on MALME-3M melanoma, with KM12 colon, in the experiment with A549 NSCLC and in the experiment on HCT-15 colon was above 100 µM throughout. Moreover, the TGI in the experiment with TK-10 renal, in the experiment with NCI-H460 lung, in the experiment on SNB-75 CNS and with RXF 393 renal was above 100 µM each time.

In the case of `COc1ccc(/C(C)=C(\c2ccc(Cl)cc2)c2ccc(OCCN3CCCC3)cc2)cc1`, the GI50 in the experiment on ACHN renal was 5.1 µM; in the experiment on UACC-62 melanoma, 2.15 µM; with MALME-3M melanoma, 2.72 µM; in the experiment on KM12 colon it was 1.98 µM; in the experiment with A549 NSCLC, 3.97 µM; in the experiment with HCT-15 colon it was 1.09 µM. Further, the GI50 with TK-10 renal was 5.49 µM; in the experiment with NCI-H460 lung, 3.36 µM; with SNB-75 CNS, 4.29 µM; in the experiment on RXF 393 renal, 3.39 µM. For the same compound, the TGI amounted to 9.62 µM with ACHN renal; 6.53 µM with UACC-62 melanoma; 7.61 µM in the experiment on MALME-3M melanoma; 6.6 µM with KM12 colon; 8.43 µM in the experiment with A549 NSCLC; 4.35 µM with HCT-15 colon. Besides, the TGI amounted to 10.4 µM in the experiment on TK-10 renal, 7.46 µM in the experiment on NCI-H460 lung, 8.58 µM with SNB-75 CNS and 7.93 µM with RXF 393 renal.

Turning to `CN(C(=O)C1(C(=O)C=[N+]=[N-])CC1)c1ccccc1`, the TGI in the experiment on ACHN renal, with UACC-62 melanoma, in the experiment with MALME-3M melanoma, in the experiment with KM12 colon, with A549 NSCLC and in the experiment on HCT-15 colon was above 100 µM throughout. In addition, the TGI in the experiment on TK-10 renal, with NCI-H460 lung, in the experiment on SNB-75 CNS and in the experiment with RXF 393 renal was above 100 µM in each case.

In the case of `COc1ccc(N2CCN(C(=O)c3ccccc3Nc3ccnc(C(F)(F)F)c3)CC2)cc1`, the GI50 in the experiment with ACHN renal was above 100 µM; with UACC-62 melanoma, 30.9 µM; in the experiment with MALME-3M melanoma it was above 100 µM; in the experiment with KM12 colon it was 76.9 µM; with A549 NSCLC, 61.5 µM; with HCT-15 colon, above 100 µM. The GI50 in the experiment with TK-10 renal was 54.7 µM; in the experiment on NCI-H460 lung, 50.7 µM; in the experiment with SNB-75 CNS, 50.5 µM; in the experiment on RXF 393 renal, 99.9 µM. The TGI with ACHN renal, in the experiment with UACC-62 melanoma, with MALME-3M melanoma, in the experiment on KM12 colon, with A549 NSCLC and with HCT-15 colon was above 100 µM each time. The TGI with TK-10 renal, in the experiment with NCI-H460 lung, with SNB-75 CNS and in the experiment on RXF 393 renal was above 100 µM throughout.

Consider `CC1(O)C=CC2CCC1C2O` (stereo not given), for which the TGI in the experiment on ACHN renal, in the experiment with UACC-62 melanoma, in the experiment on MALME-3M melanoma, with KM12 colon, with A549 NSCLC and in the experiment on HCT-15 colon was above 100 µM each time. Besides, the TGI in the experiment on TK-10 renal, with NCI-H460 lung, in the experiment on SNB-75 CNS and in the experiment with RXF 393 renal was above 100 µM throughout.

For the compound `COC(=O)C[CH](C(=O)OC)[Ge]([CH3])([CH3])[S]c1ccccc1` (stereo not given), the GI50 was 18.4 µM in the experiment on ACHN renal; 15.8 µM with UACC-62 melanoma; above 100 µM in the experiment with MALME-3M melanoma; 17 µM in the experiment on KM12 colon; 43.9 µM in the experiment with A549 NSCLC; 13.2 µM in the experiment with HCT-15 colon. Moreover, the GI50 in the experiment with TK-10 renal was 38.9 µM; in the experiment on NCI-H460 lung it was 15.5 µM; in the experiment on SNB-75 CNS it was 22.1 µM; with RXF 393 renal, 37.9 µM. Moreover, the TGI in the experiment with ACHN renal is 36.6 µM; with UACC-62 melanoma it was 36.2 µM; in the experiment with MALME-3M melanoma, above 100 µM; in the experiment with KM12 colon, 46.2 µM; in the experiment with A549 NSCLC, above 100 µM; in the experiment with HCT-15 colon it was 27.6 µM. Also, the TGI in the experiment with TK-10 renal is above 100 µM; in the experiment on NCI-H460 lung it was 28.8 µM; in the experiment with SNB-75 CNS it was 72.2 µM; in the experiment with RXF 393 renal it was 55.9 µM.

Turning to `CC(CN=C(CC(=O)c1ccc(Br)cc1)c1ccccc1)N=C(CC(=O)c1ccc(Br)cc1)c1ccccc1` (stereo not given), the GI50 in the experiment on ACHN renal was 48 µM; with UACC-62 melanoma, 32 µM; with MALME-3M melanoma it was 23.3 µM; with KM12 colon, 32.3 µM; in the experiment with A549 NSCLC it was 7.6 µM; with HCT-15 colon it was 43.6 µM. The GI50 in the experiment on TK-10 renal was 7.56 µM; in the experiment on NCI-H460 lung, 5.38 µM; with SNB-75 CNS, above 100 µM; in the experiment on RXF 393 renal, 5.59 µM. Further, the TGI with ACHN renal, in the experiment with UACC-62 melanoma, in the experiment on MALME-3M melanoma, in the experiment on KM12 colon, with A549 NSCLC and in the experiment with HCT-15 colon was above 100 µM each time. For the same compound, the TGI with TK-10 renal, in the experiment with NCI-H460 lung, in the experiment on SNB-75 CNS and in the experiment with RXF 393 renal was above 100 µM throughout.

Consider `Cc1ccc(Cl)cc1Nc1nc(C(F)(F)F)ccc1C(=O)Nc1cccc(C(F)(F)F)c1`, for which the GI50 was 2.95 µM in the experiment on ACHN renal; 5.22 µM in the experiment on UACC-62 melanoma; 3.04 µM in the experiment with MALME-3M melanoma; 3.12 µM in the experiment on KM12 colon; 2.93 µM in the experiment on A549 NSCLC; 3.67 µM in the experiment on HCT-15 colon. Also, the GI50 in the experiment on TK-10 renal is 5.58 µM; in the experiment with NCI-H460 lung, 2.79 µM; with SNB-75 CNS, 3.11 µM; with RXF 393 renal it was 2.7 µM. Moreover, the TGI in the experiment on ACHN renal was 12.8 µM; in the experiment on UACC-62 melanoma it was 17.1 µM; with MALME-3M melanoma it was 12.4 µM; in the experiment on KM12 colon, 12.8 µM; with A549 NSCLC, 11.7 µM; in the experiment with HCT-15 colon, 14.9 µM. Besides, the TGI came out at 17.8 µM with TK-10 renal, 10.1 µM with NCI-H460 lung, 12.3 µM in the experiment with SNB-75 CNS and 7.92 µM in the experiment with RXF 393 renal.

The record behind these values is PubChem BioAssay (NCI).
